Reference: article PMC12675575, “A BRET biosensor for measuring uncompetitive engagement of PRMT5 complexes in cells” (Nature Communications, 2025)
Like-named read-outs stand apart in the source and are kept apart here.

Target: NanoLuc-PRMT5 co-expressed with WDR77 (Homo sapiens, UniProt O14744)
Test: Live-cell NanoBRET target engagement with BRET probe CBH-002 in HEK293 cells expressing NanoLuc-PRMT5 and unlabeled WDR77
Format: cell-based
Design: host or cells: HEK293
Details: HEK293, Figure S2H, log([compound]), read-out: normalised BRET, Bio rep 1-3; for remaining activity at 0.3715 µM: uM -0.43; for remaining activity at 0.04074 µM: uM -1.39; for remaining activity at 0.0138 µM: uM -1.86; for remaining activity at 0.004571 µM: uM -2.34; for remaining activity at 0.001514 µM: uM -2.82; for remaining activity at 0.0005129 µM: uM -3.29; for remaining activity at 0.0001698 µM: uM -3.77
Procedure: HEK293 cells (ATCC) were cultured in DMEM (Thermo Fisher) + 10% (v/v) FBS (Seredigm), and HCT116 cells (Horizon Discovery, #PAR-034 and #R02-033) were cultured in McCoy’s 5A (Thermo Fisher) + 10% FBS, with incubation in a humidified, 37 °C/5% CO2 incubator. Cells were split 1–3 days prior to performing experiments and used at roughly 80% confluency. […] Cells were transfected according to the manufacturer’s protocol using FuGENE HD (Promega). NanoLuc fusion DNA was diluted into Transfection Carrier DNA (Promega) in Opti-MEM at a ratio of 1:9 (mass/mass), and FuGENE HD was added at a ratio of 1:3 (μg DNA:μL lipid). […] Formed complexes were combined with cells resuspended to a density of 2 × 10^5 cells/mL in Opti-MEM + 1% FBS at a ratio of 1:20 (vol:vol). […] Cells were seeded at a density of 2 × 10^5 cells/mL in Opti-MEM + 1% FBS in 100 μL (96-well). The BRET probe CBH-002 was prepared first as a 100× stock in 100% DMSO (Sigma) and then diluted to a 20× stock in NanoBRET Tracer Dilution buffer (Promega). Test compounds were prepared as 1000× stocks in 100% DMSO and diluted to 10× stocks in Opti-MEM to prepare working stocks. […] NanoBRET Complete 3x Substrate was prepared by combining Nano-Glo Substrate and Extracellular NanoLuc Inhibitor in Opti-MEM, according to the manufacturer’s protocol (Promega).
BRET ratio values were calculated by dividing the acceptor by the donor signal, and raw BRET was converted to milli-BRET (mBRET) units (mBu) by multiplying by 1000.
EC50 values were obtained by fitting the BRET probe and compound affinity curves to a sigmoidal four-parameter fit model in Graphpad Prism:1 Y=Ymin+Ymax−Ymin/1+10^LogEC50−Xh where h is the Hill Slope.
When normalized BRET was used, mBRET values were normalized using2 NormalizedBRET%=(Y−BRETmin)/BRETmax−BRETmin where y = mBRET in the presence of test compound and BRET probe, BRETmin = mBRET at the highest concentration (saturating) of test compound and BRET probe, and BRETmax = mBRET in the presence of vehicle (DMSO) and BRET probe.
Normalized concentration-response curves showing full competition were fit using a 2-parameter model:3 Y=100/1+10^LogEC50−Xh
In situations where only partial competition was observed, the normalized concentration-response curves were fit using Eq. 1 and where Ymin was constrained to >0.

Chain of NanoLuc-PRMT5 co-expressed with WDR77 (O14744 whole entry): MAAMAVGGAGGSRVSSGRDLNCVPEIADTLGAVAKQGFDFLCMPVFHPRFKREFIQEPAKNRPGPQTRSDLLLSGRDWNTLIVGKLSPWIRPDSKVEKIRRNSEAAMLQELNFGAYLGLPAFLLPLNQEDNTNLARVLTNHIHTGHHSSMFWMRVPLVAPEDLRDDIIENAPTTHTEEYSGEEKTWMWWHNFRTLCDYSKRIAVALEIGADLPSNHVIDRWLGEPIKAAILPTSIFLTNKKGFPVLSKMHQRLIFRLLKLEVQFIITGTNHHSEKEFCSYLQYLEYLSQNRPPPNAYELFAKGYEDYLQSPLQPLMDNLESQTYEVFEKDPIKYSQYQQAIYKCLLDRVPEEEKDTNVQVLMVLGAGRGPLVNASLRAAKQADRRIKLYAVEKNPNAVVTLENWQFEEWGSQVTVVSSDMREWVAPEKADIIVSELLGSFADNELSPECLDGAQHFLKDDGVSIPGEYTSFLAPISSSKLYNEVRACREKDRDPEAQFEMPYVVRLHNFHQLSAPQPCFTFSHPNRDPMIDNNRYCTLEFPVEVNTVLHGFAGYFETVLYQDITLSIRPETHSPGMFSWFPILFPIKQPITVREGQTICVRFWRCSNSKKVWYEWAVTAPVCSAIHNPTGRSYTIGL
Chain of NanoLuc-PRMT5 co-expressed with WDR77 (Q9BQA1 whole entry partner): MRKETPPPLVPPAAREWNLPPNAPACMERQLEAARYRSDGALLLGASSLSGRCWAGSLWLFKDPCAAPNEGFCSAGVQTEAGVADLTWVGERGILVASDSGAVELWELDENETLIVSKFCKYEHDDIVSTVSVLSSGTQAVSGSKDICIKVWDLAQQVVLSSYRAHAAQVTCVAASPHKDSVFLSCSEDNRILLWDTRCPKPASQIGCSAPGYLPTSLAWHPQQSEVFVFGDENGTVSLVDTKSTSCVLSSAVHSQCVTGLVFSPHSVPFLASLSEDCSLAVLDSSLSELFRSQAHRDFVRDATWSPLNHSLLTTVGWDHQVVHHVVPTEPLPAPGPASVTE

Compound | remaining activity at […] (uM 0.0458) | remaining activity at […] (uM 0.52) | remaining activity at 0.3715 µM | remaining activity at […] (uM -0.91) | remaining activity at 0.04074 µM | remaining activity at 0.0138 µM | remaining activity at 0.004571 µM | remaining activity at 0.001514 µM | remaining activity at 0.0005129 µM | remaining activity at 0.0001698 µM
CC(C)Oc1ccc(-c2c[nH]cc2CN(C)CCN)cc1 [MS023, reference compound] | 103% | 102% | 102% | 103% | 103% | 104% | 101% | 102% | 103% | 98%
CNCCN1CCC(c2cc(CN(C)C(=O)c3cccc(Oc4ccccc4)c3)ccn2)CC1 [TP064, reference compound] | 100% | 99% | 102% | 102% | 101% | 101% | 99.8% | 97.9% | 97.6% | 97.4%
